Test results reported in publication PMC12485664, “Interaction of class III cellobiose dehydrogenase with lytic polysaccharide monooxygenase” (FEBS Open Bio, 2025).

Experiments:
NcAA9C (NcLPMO9C) = target: T1, NcAA9C (NcLPMO9C) (Neurospora crassa, UniProt Q7SHI8); assay: batch conversion, RDE H2O2 consumption, HPAEC-PAD and MALDI-TOF-MS of products; assay type: biochemical; settings: H2O2 cosubstrate, 5 mM ascorbic acid, 30 mM sodium acetate pH 5.0, 100 mM KCl
T1 construct: gene gh61-3; recombinant secreted in Komagataella phaffii, FPLC purified; copper enzyme, C4-acting
T1 sequence (Q7SHI8 17-359): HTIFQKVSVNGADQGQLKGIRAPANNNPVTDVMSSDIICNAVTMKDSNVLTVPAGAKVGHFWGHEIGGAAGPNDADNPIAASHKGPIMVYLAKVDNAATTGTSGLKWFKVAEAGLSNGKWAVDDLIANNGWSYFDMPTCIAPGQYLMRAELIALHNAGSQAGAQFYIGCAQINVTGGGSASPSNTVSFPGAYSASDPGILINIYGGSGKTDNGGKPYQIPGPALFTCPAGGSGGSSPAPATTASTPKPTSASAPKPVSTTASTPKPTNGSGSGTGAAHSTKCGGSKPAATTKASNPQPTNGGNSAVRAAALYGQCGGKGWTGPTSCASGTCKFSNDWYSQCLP

[1] = system: T2, FsCDH (class III cellobiose dehydrogenase); assay: DCIP reduction, plate reader, Michaelis-Menten fit; assay type: biochemical, Fusarium solani; settings: 0.3 mM DCIP, 50 mM potassium phosphate pH 6.0
T2 construct: gene CDH; flavocytochrome with cytochrome and dehydrogenase domains; recombinant secreted in Komagataella phaffii, FPLC purified
From the text: DCIP reduction, plate reader, Michaelis-Menten fit on FsCDH (class III cellobiose dehydrogenase)

| SMILES | Km [1] [µM] | other results |
| --- | --- | --- |
| OC[C@H]1O[C@@H](O[C@H]2[C@H](O)[C@@H](O)[C@H](O[C@H]3[C@H](O)[C@@H](O)[C@H](O[C@H]4[C@H](O)[C@@H](O)[C@H](O[C@H]5[C@H](O)[C@@H](O)C(O)O[C@@H]5CO)O[C@@H]4CO)O[C@@H]3CO)O[C@@H]2CO)[C@H](O)[C@@H](O)[C@@H]1O (stereo partly shown) [cellopentaose] | – | batch conversion, RDE H2O2 consumption, HPAEC-PAD and MALDI-TOF-MS of products (NcAA9C (NcLPMO9C)): a batch reaction employing NcAA9C, H2O2 as cosubstrate |
| OC[C@H]1O[C@@H](O[C@H]2[C@H](O)[C@@H](O)[C@H](O[C@H]3[C@H](O)[C@@H](O)C(O)O[C@@H]3CO)O[C@@H]2CO)[C@H](O)[C@@H](O)[C@@H]1O (stereo partly shown) [cellotriose] | 16.1 ± 2.9 | – |
| OC[C@H]1OC(O)[C@H](O)[C@@H](O)[C@@H]1O[C@@H]1O[C@H](CO)C(O)(O)[C@H](O)[C@H]1O (stereo partly shown) [Glc4gemGlc] | – | Km ([1]; sample not treated with β-glucosidase, 1 to 100 μM): 30.6 ± 8.3 µM |
| OC[C@H]1O[C@@H](O[C@H]2[C@H](O)[C@@H](O)C(O)O[C@@H]2CO)[C@H](O)[C@@H](O)[C@@H]1O (stereo partly shown) [cellobiose] | 21.4 ± 3 | – |
